Reference: PubChem BioAssay (NCI)
Where “and” joins values, the source holds several entries; their conditions need not be identical. Equal values may be shown once.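 Test compounds were applied to cells in 96-well plates for 48 hours at 5 doses. GI50: concentration for 50% inhibition of growth. TGI marks complete inhibition of growth.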

Assays:
Experiment in all cases: NCI-60 cell line screen, 48 h
[1] = test system: 786-0 renal
[2] = test system: A549 NSCLC
[3] = test system: COLO 205 colon
[4] = test system: EKVX NSCLC
[5] = test system: HOP-62 NSCLC
[6] = test system: SF-268 CNS
[7] = test system: SF-295 CNS
[8] = test system: SK-OV-3 ovarian
[9] = test system: SN12C renal
[10] = test system: UACC-257 melanoma
[11] = test system: UACC-62 melanoma

Row | SMILES | TGI [1] [µM] | TGI [2] | TGI [3] | TGI [4] | TGI [5] | TGI [6] | TGI [7] | TGI [8] | TGI [9] | TGI [10] | TGI [11] | GI50 [2] [µM] | GI50 [3] [µM] | GI50 [4] [µM] | GI50 [5] [µM] | GI50 [6] [µM] | GI50 [7] [µM] | GI50 [8] [µM] | GI50 [9] [µM] | GI50 [11] [µM]
1 | COc1cc(C2SC(N)=Nc3c2c(C)nn3C(=O)c2ccccc2O)ccc1O (configuration not stated) | > 10 | > 10 µM | > 10 µM | > 10 µM | > 10 µM | > 10 µM | > 10 µM | > 10 µM | > 10 µM | > 10 µM | > 10 µM |  |  |  |  |  |  |  |  | 
2 | Cc1ccc2c(c1)C(=O)N1CCC[C@H]1C=N2 | > 100 | > 100 µM | 37.8 µM | 71 µM | > 83.1 µM | > 100 µM | > 100 µM | > 100 µM | > 100 µM | > 74.3 µM | 34.7 µM |  |  |  |  |  |  |  |  | 
3 | COC1C(O)C(C)OC(OC2C(Oc3cccc4c(O)c5c(=O)oc6ccc(C)c7c(=O)oc(c34)c5c67)OC(C)C(O)C2O)C1O (configuration not stated) | 4.57 | 53 µM and 40.4 µM | 16 µM and 6.3 µM | 15.2 µM and 4.85 µM | 6.38 µM and 5.29 µM | 11.1 µM and 12.6 µM | 11.9 µM and 4.21 µM | 17.2 µM and 23.3 µM | 7.74 µM and 20.9 µM | 5.85 µM and 5.46 µM | 3.26 µM and 3.56 µM | 5.48 | 1.74 | 3.81 | 1.01 | 1.01 | 1.12 | 3.66 | 1.41 | 1.35
4 | CCN(CC)CCCn1c(=O)c2ccccc2n2c3c(=O)n(C)c(=O)n(C)c3nc12 | 18.6 | 10.4 µM | 20.6 µM | 36.6 µM | 15.1 µM | 23 µM | 15.6 µM | 14.7 µM | 18.6 µM | 26.2 µM | 24.1 µM |  |  |  |  |  |  |  |  | 
5 | C[C@]12Cc3cnn(-c4ccc(F)cc4)c3NC1CC[C@@H]1C2CC[C@@]2(C)C1CC[C@@H]2O (some centres not stated) | 11.9 | 30.7 µM | 10.3 µM | 25.4 µM | 26.1 µM | 37.9 µM | 4.38 µM | 67.9 µM | 30.4 µM | 19.2 µM | 23.3 µM |  |  |  |  |  |  |  |  | 
6 | COc1cc(C(=O)O[C@@H]2[C@@H](OC(=O)c3cc(OC)c(OC)c(OC)c3)[C@@H](OC)O[C@@H]3CO[C@@H](c4ccccc4)O[C@@H]23)cc(OC)c1OC | > 100 | > 100 µM | > 100 µM | > 100 µM | > 100 µM | > 100 µM | > 100 µM | > 100 µM | > 100 µM | > 100 µM | > 100 µM |  |  |  |  |  |  |  |  | 
7 | O=C1N2CCc3c([nH]c4ccccc34)C23CC2CCCCC12S3 (configuration not stated) | > 100 | > 100 µM | > 100 µM | > 100 µM | > 100 µM | > 100 µM | > 100 µM | > 100 µM | > 100 µM | 73.1 µM | > 100 µM |  |  |  |  |  |  |  |  | 
8 | CC1(C)CC23CC(C)(C)c4cccc(c42)OCc2ccc4ccc5ccc(nc5c4n2)COc2cccc1c23 | > 50 | > 50 µM | > 50 µM | > 50 µM | > 50 µM | > 50 µM | > 50 µM | > 50 µM | > 50 µM | > 50 µM | > 50 µM |  |  |  |  |  |  |  |  | 
9 | CC(C)OP(=O)(OC(C)C)/C(C#N)=C/c1ccco1 | > 100 | > 100 µM | > 100 µM | > 100 µM | > 100 µM | > 100 µM | > 100 µM | > 100 µM | > 100 µM | > 100 µM | > 100 µM |  |  |  |  |  |  |  |  | 
10 | CCN1C[C@]2(C)CC[C@H](OC)C34C1C([C@H](OC(C)=O)[C@@H]32)[C@@]1(OC)C[C@H](OC)[C@H]2C[C@@H]4[C@@H]1[C@H]2O | > 100 | > 100 µM | > 100 µM | > 100 µM | > 100 µM | > 100 µM | > 100 µM | > 100 µM | > 100 µM | > 100 µM | > 100 µM |  |  |  |  |  |  |  |  | 
11 | CN(C)CC1COC2Cc3ccccc3C1O2 (configuration not stated) | > 100 | > 100 µM | > 100 µM | > 100 µM | > 100 µM | > 100 µM | > 100 µM | > 100 µM | > 100 µM | > 100 µM | > 100 µM |  |  |  |  |  |  |  |  | 
12 | CCOC(=O)Cc1csc2[n+]1C(=O)/C(=C\c1cccc(Cl)c1Cl)S2 | 31.2 | 35.8 µM | 20.7 µM | 50.7 µM | 46.9 µM | 80.2 µM | 46.5 µM | 43.1 µM | 37.8 µM | 90.1 µM | 21.8 µM |  |  |  |  |  |  |  |  | 
13 | CCCC(=O)O[C@H]1C=C2C[C@@]34SS[C@]5(CC6=C[C@H](OC(C)=O)[C@@H]7O[C@@H]7[C@H]6N5C3=O)C(=O)N4[C@@H]2[C@H]2O[C@H]21 | 0.00841 | 1.68 µM | 0.0637 µM | 0.0294 µM | 0.0892 µM | 0.119 µM | 1.35 µM | 3.21 µM | 0.0111 µM | 0.0746 µM | 0.0851 µM |  |  |  |  |  |  |  |  | 
